Test results: the supplement of paper PMC10307832

What was measured:
Assay in all cases: relative viability (nuclei count vs DMSO), 5 days (fraction); higher = more cells survive
[1] = compound: Cc1ccc(C(=O)N(CCCN)[C@@H](c2nc3cc(Cl)ccc3c(=O)n2Cc2ccccc2)C(C)C)cc1 [Ispinesib] + COc1cc2c(Oc3ccc(NC(=O)C4(C(=O)Nc5ccc(F)cc5)CC4)cc3F)ccnc2cc1OCCCN1CCOCC1 [Foretinib] (partner 0.25 µM)
Outline: (§1)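 Relative viability is defined as nuclei in treated wells over nuclei in vehicle wells. Duplicate plates were run and medians reported. Lung cancer cell lines in 1536-well plates were dosed by pin tool one day after seeding, with one drug or with a fixed anchor-drug dose plus five library-drug doses (not always all listed) in √10 steps, and nuclei were counted after 5 days.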

[2] = compound: C[C@]1(O)C[C@@H](c2nc(-c3ccc4ccc(-c5ccccc5)nc4c3)c3c(N)nccn32)C1 [Linsitinib] + Cc1nc(Nc2ncc(C(=O)Nc3c(C)cccc3Cl)s2)cc(N2CCN(CCO)CC2)n1 [Dasatinib] (partner 0.075 µM)
Outline: as §1

[3] = compound: Cc1ccc(C(=O)N(CCCN)[C@@H](c2nc3cc(Cl)ccc3c(=O)n2Cc2ccccc2)C(C)C)cc1 [Ispinesib] + CC(=O)c1c(C)c2cnc(Nc3ccc(N4CCNCC4)cn3)nc2n(C2CCCC2)c1=O [Palbociclib] (partner 0.5 µM)
Outline: as §1

[4] = compound: Cc1ccc(C(=O)N(CCCN)[C@@H](c2nc3cc(Cl)ccc3c(=O)n2Cc2ccccc2)C(C)C)cc1 [Ispinesib] + CC1(C)CCC(c2ccc(Cl)cc2)=C(CN2CCN(c3ccc(C(=O)NS(=O)(=O)c4ccc(N[C@H](CCN5CCOCC5)CSc5ccccc5)c(S(=O)(=O)C(F)(F)F)c4)cc3)CC2)C1 [Navitoclax] (partner 0.5 µM)
Outline: as §1

## NCI-H2405
[1]; first compound 0.001 µM
  relative viability: 1.04
[1]; first compound 0.003162 µM
  relative viability: 1.06
[1]; first compound 0.01 µM
  relative viability: 1.02
[1]; first compound 0.03162 µM
  relative viability: 1.07
[1]; first compound 0.1 µM
  relative viability: 0.978
[2]; first compound 0.01 µM
  relative viability: 0.189
[2]; first compound 0.03162 µM
  relative viability: 0.207
[2]; first compound 0.1 µM
  relative viability: 0.202
[2]; first compound 0.3162 µM
  relative viability: 0.34
[2]; first compound 1 µM
  relative viability: 0.18
[3]; first compound 0.001 µM
  relative viability: 0.546
[3]; first compound 0.003162 µM
  relative viability: 0.555
[3]; first compound 0.01 µM
  relative viability: 0.512
[3]; first compound 0.03162 µM
  relative viability: 0.479
[3]; first compound 0.1 µM
  relative viability: 0.397
[4]; first compound 0.001 µM
  relative viability: 0.884
[4]; first compound 0.003162 µM
  relative viability: 0.72
[4]; first compound 0.01 µM
  relative viability: 0.942
[4]; first compound 0.03162 µM
  relative viability: 0.779
[4]; first compound 0.1 µM
  relative viability: 0.276

## LCLC-103H
[1]; first compound 0.001 µM
  relative viability: 0.869
[1]; first compound 0.003162 µM
  relative viability: 1.03
[1]; first compound 0.01 µM
  relative viability: 0.95
[1]; first compound 0.03162 µM
  relative viability: 0.665
[1]; first compound 0.1 µM
  relative viability: 0.693
[2]; first compound 0.01 µM
  relative viability: 0.444
[2]; first compound 0.03162 µM
  relative viability: 0.517
[2]; first compound 0.1 µM
  relative viability: 0.474
[2]; first compound 0.3162 µM
  relative viability: 0.428
[2]; first compound 1 µM
  relative viability: 0.368
[3]; first compound 0.001 µM
  relative viability: 0.447
[3]; first compound 0.003162 µM
  relative viability: 0.545
[3]; first compound 0.01 µM
  relative viability: 0.476
[3]; first compound 0.03162 µM
  relative viability: 0.441
[3]; first compound 0.1 µM
  relative viability: 0.465

## HCC-44
[3]; first compound 0.001 µM
  relative viability: 0.996
[3]; first compound 0.003162 µM
  relative viability: 0.985
[3]; first compound 0.01 µM
  relative viability: 0.978
[3]; first compound 0.03162 µM
  relative viability: 0.999
[3]; first compound 0.1 µM
  relative viability: 0.948
[4]; first compound 0.001 µM
  relative viability: 1.02
[4]; first compound 0.003162 µM
  relative viability: 1
[4]; first compound 0.01 µM
  relative viability: 1.2
[4]; first compound 0.03162 µM
  relative viability: 1.05
[4]; first compound 0.1 µM
  relative viability: 0.265

## RERF-LC-KJ
[1]; first compound 0.001 µM
  relative viability: 0.875
[1]; first compound 0.003162 µM
  relative viability: 0.9
[1]; first compound 0.01 µM
  relative viability: 0.976
[1]; first compound 0.03162 µM
  relative viability: 0.91
[1]; first compound 0.1 µM
  relative viability: 0.257
[2]; first compound 0.01 µM
  relative viability: 0.75
[2]; first compound 0.03162 µM
  relative viability: 0.964
[2]; first compound 0.1 µM
  relative viability: 0.697
[2]; first compound 0.3162 µM
  relative viability: 0.543
[2]; first compound 1 µM
  relative viability: 0.454
[3]; first compound 0.001 µM
  relative viability: 1.11
[3]; first compound 0.003162 µM
  relative viability: 1.03
[3]; first compound 0.01 µM
  relative viability: 0.935
[3]; first compound 0.03162 µM
  relative viability: 0.68
[3]; first compound 0.1 µM
  relative viability: 0.583
[4]; first compound 0.001 µM
  relative viability: 1.17
[4]; first compound 0.003162 µM
  relative viability: 0.997
[4]; first compound 0.01 µM
  relative viability: 1.01
[4]; first compound 0.03162 µM
  relative viability: 0.74
[4]; first compound 0.1 µM
  relative viability: 0.369

## NCI-H1975
[1]; first compound 0.001 µM
  relative viability: 0.996
[1]; first compound 0.003162 µM
  relative viability: 0.934
[1]; first compound 0.01 µM
  relative viability: 1.05
[1]; first compound 0.03162 µM
  relative viability: 0.632
[1]; first compound 0.1 µM
  relative viability: 0.144
[2]; first compound 0.01 µM
  relative viability: 0.37
[2]; first compound 0.03162 µM
  relative viability: 0.349
[2]; first compound 0.1 µM
  relative viability: 0.331
[2]; first compound 0.3162 µM
  relative viability: 0.241
[2]; first compound 1 µM
  relative viability: 0.235
[3]; first compound 0.001 µM
  relative viability: 0.663
[3]; first compound 0.003162 µM
  relative viability: 0.683
[3]; first compound 0.01 µM
  relative viability: 0.581
[3]; first compound 0.03162 µM
  relative viability: 0.311
[3]; first compound 0.1 µM
  relative viability: 0.192
[4]; first compound 0.001 µM
  relative viability: 1.16
[4]; first compound 0.003162 µM
  relative viability: 1.25
[4]; first compound 0.01 µM
  relative viability: 1.27
[4]; first compound 0.03162 µM
  relative viability: 1.14
[4]; first compound 0.1 µM
  relative viability: 0.186

## IA-LM
[1]; first compound 0.001 µM
  relative viability: 1.21
[1]; first compound 0.003162 µM
  relative viability: 1.51
[1]; first compound 0.01 µM
  relative viability: 1.45
[1]; first compound 0.03162 µM
  relative viability: 1.06
[1]; first compound 0.1 µM
  relative viability: 0.132
[4]; first compound 0.001 µM
  relative viability: 0.969
[4]; first compound 0.003162 µM
  relative viability: 0.751
[4]; first compound 0.01 µM
  relative viability: 0.44
[4]; first compound 0.03162 µM
  relative viability: 0.0088
[4]; first compound 0.1 µM
  relative viability: 0.0187

## ABC-1
[1]; first compound 0.001 µM
  relative viability: 1.37
[1]; first compound 0.003162 µM
  relative viability: 1.35
[1]; first compound 0.01 µM
  relative viability: 1.11
[1]; first compound 0.03162 µM
  relative viability: 0.507
[1]; first compound 0.1 µM
  relative viability: 0.382
[2]; first compound 0.01 µM
  relative viability: 0.574
[2]; first compound 0.03162 µM
  relative viability: 0.469
[2]; first compound 0.1 µM
  relative viability: 0.504
[2]; first compound 0.3162 µM
  relative viability: 0.541
[2]; first compound 1 µM
  relative viability: 0.448
[3]; first compound 0.001 µM
  relative viability: 0.578
[3]; first compound 0.003162 µM
  relative viability: 0.665
[3]; first compound 0.01 µM
  relative viability: 0.765
[3]; first compound 0.1 µM
  relative viability: 0.49

## EBC-1
[1]; first compound 0.001 µM
  relative viability: 0.111
[1]; first compound 0.003162 µM
  relative viability: 0.101
[1]; first compound 0.01 µM
  relative viability: 0.109
[1]; first compound 0.03162 µM
  relative viability: 0.0927
[1]; first compound 0.1 µM
  relative viability: 0.0893
[4]; first compound 0.001 µM
  relative viability: 0.349
[4]; first compound 0.003162 µM
  relative viability: 0.43
[4]; first compound 0.01 µM
  relative viability: 0.246
[4]; first compound 0.03162 µM
  relative viability: 0.189
[4]; first compound 0.1 µM
  relative viability: 0.223

## NCI-H358
[1]; first compound 0.001 µM
  relative viability: 0.694
[1]; first compound 0.003162 µM
  relative viability: 0.695
[1]; first compound 0.01 µM
  relative viability: 0.702
[1]; first compound 0.03162 µM
  relative viability: 0.28
[1]; first compound 0.1 µM
  relative viability: 0.123
[2]; first compound 0.01 µM
  relative viability: 0.162
[2]; first compound 0.03162 µM
  relative viability: 0.167
[2]; first compound 0.1 µM
  relative viability: 0.159
[2]; first compound 0.3162 µM
  relative viability: 0.148
[2]; first compound 1 µM
  relative viability: 0.142
[3]; first compound 0.001 µM
  relative viability: 0.125
[3]; first compound 0.003162 µM
  relative viability: 0.13
[3]; first compound 0.01 µM
  relative viability: 0.143
[3]; first compound 0.03162 µM
  relative viability: 0.106
[3]; first compound 0.1 µM
  relative viability: 0.0965
